# Patent publication US8853424B2 (Japan Science and Technology Agency, priority 2008, dated 2014)
# Like-named read-outs stand apart in the source and are kept apart here.
# Tests used:
# transglutaminase (TGase) = assay: Measurement of TG (TGase inhibitory activity, monodansyl cadaverine / N,N-dimethylcasein fluorescence, FDSS 3000); format: biochemical
# In short: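 Compound (1 μL of 10 mM stock) added to 0.1 mL reaction: 100 mM HEPES-NaOH pH 7.5, 1 mM CaCl2, 20 μM monodansyl cadaverine, 0.05 mg/mL N,N-dimethylcasein, 5 μg/mL TGase. Rate of fluorescence change at 340 nm measured; DMSO control set to 100; TG50 is the concentration halving activity.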
# [1] = tested on: Truncated N-terminal huntington 150 Q-EGFP-Neuron 2a cells; assay: Measurement of x-Fold (polyglutamine aggregation inhibitory activity); format: cell-based
# Method: In the present invention, the polyglutamine aggregation inhibitory activity (x-Fold) can be measured, for example, by the method described in the Example.
# The number of the aggregated cells, and the total number of cells were counted by Array Scan V T1 (manufactured by Cellomics, Pittuburg, USA), and the ratio of the aggregated cells to the total number of cells was determined (x-Fold). […]
# [2] = tested on: SOC (store operated calcium channel); assay: Measurement of SOC IC50 (thapsigargin store depletion, calcium re-addition, CHO cells); format: cell-based; details: read-out: SOC IC50
# Method: The SOC (store operated calcium channel)-suppressive action can be measured by the method described in the Example and using, for example, FDSS 3000.
# CHO cell culture medium was replaced with a BSS solution which is an extracellular fluidfree of calcium, the compound of the present invention was added 1 min later, and 1 μM thapsigargin was allowed to act thereon 2 min later to deplete intracellular calcium store. […]
# [3] = TGase activity with compound (10 mM, 1 μL in 0.1 ml enzyme reaction solution), DMSO control taken as 100
# [4] = TGase inhibitory activity value, Table 1
# [5] = polyglutamine aggregation inhibitory activity, Table 1
# [6] = ratio of aggregated cells to total number of cells, compound 20 μM, 20 hr, almost 1 without compound, smaller = stronger inhibition
# [7] = Cricetulus griseus, CHO, CHO cells, 1 μM thapsigargin, 2 mM calcium chloride
# [8] = Cricetulus griseus, CHO, Table 1
# [9] = CHO cells, 1 μM thapsigargin, 2 mM calcium chloride
# [10] = TGase inhibitory activity measurement, unit not given
# [11] = polyglutamine aggregation, Truncated N-terminal huntington 150 Q-EGFP-Neuron 2a cells
smiles,measurement,setting,value
"CNCCOB(c1ccccc1)c1ccc(Oc2ccc(B(OCCNC)c3ccc(CO)cc3)cc2)cc1 [Example 391, (4-(phenyl-N-methylaminoethoxyboryl)phenyl)(4′-(hydroxymethylphenyl-N-methylaminoethoxyboryl)phenyl)ether]",TGase activity remaining (% of DMSO control = 100),transglutaminase (TGase); [3],15
same,TGase activity remaining (% of DMSO control = 100),transglutaminase (TGase); [4],15
same,x-Fold,[1]; [5],0.32
same,x-Fold,[1]; [6],0.32
same,IC50,[2]; [7],500 nM
same,IC50,[2]; [8],500 nM
"NC(=O)CCC(N)C(=O)OB(c1ccccc1)c1ccc(Oc2ccc(B(OC(=O)C(N)CCC(N)=O)c3ccc(CO)cc3)cc2)cc1 (centres unmarked) [Example 394, (4-(phenyl-glutamineboryl)phenyl)(4′-(hydroxymethylphenyl-glutamineboryl)phenyl)ether]",TGase activity remaining (% of DMSO control = 100),transglutaminase (TGase); [3],41
same,TGase activity remaining (% of DMSO control = 100),transglutaminase (TGase); [4],41
same,x-Fold,[1]; [5],0.44
same,x-Fold,[1]; [6],0.44
same,IC50,[2]; [7],1500 nM
same,IC50,[2]; [8],1500 nM
"NCCNCCOB(c1ccccc1)c1ccc(Oc2ccc(B(OCCNCCN)c3ccccc3)cc2)cc1 [Example 396, bis(4,4′-(phenyl-N-aminoethyl-aminoethoxyboryl)phenyl)ether]",TGase activity remaining (% of DMSO control = 100),transglutaminase (TGase); [3],3
same,TGase activity remaining (% of DMSO control = 100),transglutaminase (TGase); [4],3
same,x-Fold,[1]; [5],0.58
same,x-Fold,[1]; [6],0.58
same,IC50,[2]; [9],1200 nM
"NC(=O)CC(N)C(=O)OB(c1ccccc1)c1cccc(COCc2cccc(B(OC(=O)C(N)CC(N)=O)c3ccccc3)c2)c1 (centres unmarked) [Example 404, bis(3,3′-(phenyl-asparagineboryl)benzyl)ether]",TGase activity remaining (% of DMSO control = 100),transglutaminase (TGase); [3],105
same,TGase activity remaining (% of DMSO control = 100),"transglutaminase (TGase); TGase inhibitory activity measurement, unit not given, listed as 2023",105
same,x-Fold,"[1]; polyglutamine aggregation, Truncated N-terminal huntington 150 Q-EGFP-Neuron 2a cells, listed as 2023",1.07
same,x-Fold,[1]; [6],1.07
same,IC50,[2]; [7],4000 nM
same,IC50,"[2]; Cricetulus griseus, CHO, CHO cells, thapsigargin store depletion",4000 nM
"NCCCCC(N)C(=O)OB(c1ccccc1)c1ccc(COCc2ccc(B(OC(=O)C(N)CCCCN)c3ccccc3)cc2)cc1 (centres unmarked) [Example 409, bis(4,4′-(phenyl-lysineboryl)benzyl)ether]",TGase activity remaining (% of DMSO control = 100),transglutaminase (TGase); [3],29
same,TGase activity remaining (% of DMSO control = 100),transglutaminase (TGase); [10],29
same,x-Fold,[1]; [11],0.86
same,x-Fold,[1]; [6],0.86
same,IC50,[2]; [9],1500 nM
"COc1ccc(B(O)c2ccc(COCc3ccc(B(O)c4ccc(OC)cc4)cc3)cc2)cc1 [Example 410, bis(4,4′-(p-methoxy-phenyl-hydroxyboryl)benzyl)ether]",TGase activity remaining (% of DMSO control = 100),transglutaminase (TGase); [3],130
same,x-Fold,[1]; [6],0.90
same,IC50,[2]; [9],2000 nM
"COc1ccc(B(OCCN)c2ccc(COCc3ccc(B(OCCN)c4ccc(OC)cc4)cc3)cc2)cc1 [Example 412, bis(4,4′-(p-methoxyphenyl-aminoethoxyboryl)benzyl)ether]",TGase activity remaining (% of DMSO control = 100),transglutaminase (TGase); [3],65
same,TGase activity remaining (% of DMSO control = 100),transglutaminase (TGase); [10],65
same,x-Fold,[1]; [11],0.89
same,x-Fold,[1]; [6],0.89
same,IC50,[2]; [9],2000 nM
"CNCCOB(c1ccc(COCc2ccc(B(OCCNC)c3ccc(OC)cc3)cc2)cc1)c1ccc(OC)cc1 [Example 413, bis(4,4′-(p-methoxyphenyl-N-methylaminoethoxyboryl)benzyl)ether]",TGase activity remaining (% of DMSO control = 100),transglutaminase (TGase); [3],28
same,TGase activity remaining (% of DMSO control = 100),transglutaminase (TGase); [10],28
same,x-Fold,[1]; [11],0.81
same,x-Fold,[1]; [6],0.81
same,IC50,[2]; [9],800 nM
"Cc1ccc(B(OCCN)c2ccc(COCc3ccc(B(OCCN)c4ccc(C)c(Cl)c4)cc3)cc2)cc1Cl [Example 420, bis(4,4′-(3-chloro-4-methylphenyl-aminoethoxyboryl)benzyl)ether]",TGase activity remaining (% of DMSO control = 100),transglutaminase (TGase); [3],−3
same,TGase activity remaining (% of DMSO control = 100),transglutaminase (TGase); [10],−3
same,x-Fold,[1]; [11],0.81
same,x-Fold,[1]; [6],0.81
same,IC50,[2]; [9],1200 nM
"CNCCOB(c1ccc(COCc2ccc(B(OCCNC)c3ccc(C)c(Cl)c3)cc2)cc1)c1ccc(C)c(Cl)c1 [Example 421, bis(4,4′-(3-chloro-4-methylphenyl-N-methylaminoethoxyboryl)benzyl)ether]",TGase activity remaining (% of DMSO control = 100),transglutaminase (TGase); [3],−1
same,TGase activity remaining (% of DMSO control = 100),transglutaminase (TGase); [10],−1
same,x-Fold,[1]; [5],0.87
same,x-Fold,[1]; [11],1.03
same,x-Fold,[1]; [6],1.03
same,IC50,[2]; [9],1200 nM
"Cc1ccc(B(OCCN(C)C)c2ccc(COCc3ccc(B(OCCN(C)C)c4ccc(C)c(Cl)c4)cc3)cc2)cc1Cl [Example 422, bis(4,4′-(3-chloro-4-methylphenyl-N,N-dimethylaminoethoxyboryl)benzyl)ether]",TGase activity remaining (% of DMSO control = 100),transglutaminase (TGase); [3],13
same,TGase activity remaining (% of DMSO control = 100),transglutaminase (TGase); [10],13
same,x-Fold,[1]; [5],0.91
same,x-Fold,[1]; [11],0.95
same,x-Fold,[1]; [6],0.95
same,IC50,[2]; [9],1200 nM
same,IC50,[2]; Table 1,700 nM
"Cc1ccc(B(OCC2CCCCN2)c2ccc(COCc3ccc(B(OCC4CCCCN4)c4ccc(C)c(Cl)c4)cc3)cc2)cc1Cl (centres unmarked) [Example 423, bis(4,4′-(3-chloro-4-methylphenyl-2-piperidylmethoxyboryl)benzyl)ether]",TGase activity remaining (% of DMSO control = 100),transglutaminase (TGase); [3],27
same,TGase activity remaining (% of DMSO control = 100),transglutaminase (TGase); [10],27
same,x-Fold,[1]; [11],0.76
same,x-Fold,[1]; [6],0.76
same,IC50,[2]; [9],1200 nM
"CN(C)CCOB(c1ccc(COCc2ccc(B(OCCN(C)C)c3ccc(C(F)(F)F)cc3)cc2)cc1)c1ccc(C(F)(F)F)cc1 [Example 424, bis(4,4′-(p-trifluoromethylphenyl-N,N-dimethylaminoethoxyboryl)benzyl)ether]",TGase activity remaining (% of DMSO control = 100),transglutaminase (TGase); [3],22
same,TGase activity remaining (% of DMSO control = 100),transglutaminase (TGase); [10],22
same,x-Fold,[1]; [5],0.69
same,x-Fold,[1]; [11],1.03
same,x-Fold,[1]; [6],1.03
same,IC50,[2]; [9],1200 nM
"NC(=O)CC(N)C(=O)OB(c1ccc(COCc2ccc(B(OC(=O)C(N)CC(N)=O)c3ccc(C(F)(F)F)cc3)cc2)cc1)c1ccc(C(F)(F)F)cc1 (centres unmarked) [Example 425, bis(4,4′-(p-trifluoromethylphenyl-asparagineboryl)benzyl)ether]",TGase activity remaining (% of DMSO control = 100),transglutaminase (TGase); [3],130
same,x-Fold,[1]; [6],0.9
same,IC50,[2]; [9],500 nM
"NCCOB(c1ccc(COCc2ccc(B(OCCN)c3ccc(C(F)(F)F)cc3)cc2)cc1)c1ccc(C(F)(F)F)cc1 [Example 426, bis(4,4′-(p-trifluoromethylphenyl-aminoethoxyboryl)benzyl)ether]",TGase activity remaining (% of DMSO control = 100),transglutaminase (TGase); [3],19
same,TGase activity remaining (% of DMSO control = 100),transglutaminase (TGase); [10],19
same,x-Fold,[1]; [11],0.93
same,x-Fold,[1]; [6],0.93
same,IC50,[2]; [9],1200 nM
"CNCCOB(c1ccccc1)c1ccc(COc2ccc(B(OCCNC)c3ccccc3)cc2)cc1 [Example 427, (4-phenyl-N-methylaminoethoxyborylphenyl) (4′-phenyl-N-methylaminoethoxyborylbenzyl)ether]",TGase activity remaining (% of DMSO control = 100),transglutaminase (TGase); [3],20
same,TGase activity remaining (% of DMSO control = 100),transglutaminase (TGase); [10],20
same,x-Fold,[1]; [5],1.02
same,x-Fold,[1]; [11],0.73
same,x-Fold,[1]; [6],0.73
same,IC50,[2]; [9],800 nM
"CN(C)CCOB(c1ccccc1)c1ccc(COc2ccc(B(OCCN(C)C)c3ccccc3)cc2)cc1 [Example 428, (4-phenyl-N,N-dimethylaminoethoxyborylphenyl) (4′-phenyl-N,N-dimethylaminoethoxyborylbenzyl)ether]",TGase activity remaining (% of DMSO control = 100),transglutaminase (TGase); [3],53
same,TGase activity remaining (% of DMSO control = 100),transglutaminase (TGase); [10],53
same,x-Fold,[1]; [5],0.98
same,x-Fold,[1]; [11],0.82
same,x-Fold,[1]; [6],0.82
same,IC50,[2]; [9],1500 nM
"c1ccc(B(OCc2ccccn2)c2ccc(COc3ccc(B(OCc4ccccn4)c4ccccc4)cc3)cc2)cc1 [Example 429, (4-phenyl-2-pyridylmethoxyborylphenyl)(4′-phenyl-2-pyridylmethoxyborylbenzyl)ether]",TGase activity remaining (% of DMSO control = 100),transglutaminase (TGase); [3],102
same,TGase activity remaining (% of DMSO control = 100),transglutaminase (TGase); [10],102
same,x-Fold,[1]; [11],0.81
same,x-Fold,[1]; [6],0.81
same,IC50,[2]; [9],700 nM
